A short description of this experiment: TOR pathway RPL19A-GFP modulators, concentration series – cell-based, S. cerevisiae, flow cytometry, MLPCN hits, dose response (AID 2740).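 Also: background is signal of the same compound in parental non-GFP s288c yeast.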 To be noted: S. cerevisiae RPL19A-GFP strain, flow cytometry fluorescence, 3 h; at 33 µM (top of the series). On the technique in general: A flow cytometer gives signals particle by particle.

Calls of active or inactive are those of the source.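 The calls were made as follows: active = compounds whose fitted half-maximal concentration for changing the GFP signal is at or below a set limit; inactive = the rest.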

Turning to `Cc1cccc(Nc2nc(-c3ccccn3)cs2)n1`, the GFP fluorescence, lower = active (kMESF (background-subtracted)) was 29.8 (inactive). To `CCCCc1ccc(NC(=O)CC(C)=O)cc1` belongs 47.2 (inactive).

Take `O=S(=O)(/N=C(/Sc1ccccc1)c1ccccc1)c1ccccc1`: the GFP fluorescence, lower = active (kMESF (background-subtracted)) is 34.5 (inactive).

Consider `O=C(/C=C/c1ccccc1)NC(=S)NNC(=O)Cc1cccs1`, for which the GFP fluorescence, lower = active (kMESF (background-subtracted)) was 45.5 (inactive). To `CCN1C(=O)/C(=C\C(=O)c2cccs2)c2cc(Br)ccc21` belongs 34.5 (inactive). Then `O=C(Nc1ccc(NC(=O)c2cc3ccccc3o2)cc1)c1ccco1`, with 39.7 (inactive). As to `Cc1cc(O)c(C(=O)/C=C/c2c(F)c(F)c(F)c(F)c2F)c(=O)o1`, the GFP fluorescence, lower = active (kMESF (background-subtracted)) was 26.6 (inactive).

For `COc1ccccc1C(=O)NNC(=S)NC(=O)c1ccco1`, the GFP fluorescence, lower = active (kMESF (background-subtracted)) was 35.5 (inactive). Then `Oc1cc(-c2ccc(N3CCCCC3)nc2)cc2cccnc12`, with 46.1 (inactive). Turning to `COc1cccc(N=Cc2nc(-c3ccccc3)oc2OC(C)=O)c1`, the GFP fluorescence, lower = active (kMESF (background-subtracted)) was 41.9 (inactive). `CCC(=O)Oc1oc(-c2ccccc2)nc1C=Nc1ccccc1OC`: the GFP fluorescence, lower = active (kMESF (background-subtracted)) was 41.6 (inactive). As for `COc1cc(/C=C2\C(=O)N(CCC#N)N=C2C)c(Br)cc1OC(C)C`, the GFP fluorescence, lower = active (kMESF (background-subtracted)) was 39.9 (inactive).

`CCC(=O)Oc1oc(-c2ccccc2)nc1C=Nc1ccc(C)cc1`: the GFP fluorescence, lower = active (kMESF (background-subtracted)) was 40.5 (inactive).

Regarding `O=C(c1ccc(C(=O)N2CCCc3ccccc32)s1)N1CCCc2ccccc21`, the GFP fluorescence, lower = active (kMESF (background-subtracted)) was 38.1 (inactive). `O=C(/C=C/c1ccccc1Cl)c1ccccc(=O)c1O`: the GFP fluorescence, lower = active (kMESF (background-subtracted)) is 5.26 (inactive). With `CCCOc1ccc(C(=O)NNC(=S)NC(=O)c2ccccc2)cc1`, the GFP fluorescence, lower = active (kMESF (background-subtracted)) was 45.7 (inactive). To `COc1ccc(NC2=C(Cl)C(=O)N(CCc3ccccc3)C2=O)cc1` belongs 41.6 (inactive); to `Cc1ccccc1OCC(=O)NNC(=S)NC(=O)c1ccco1`, 44.1 (inactive). `CC(C)[C@]1(c2ccc(Cl)cc2)ON(c2ccccc2C(F)(F)F)C1=O`: the GFP fluorescence, lower = active (kMESF (background-subtracted)) was 40.6 (inactive). Take `O=C(O)c1cccc(S(=O)(=O)Nc2ccc(S(=O)(=O)N3CCOCC3)cc2)c1`: the GFP fluorescence, lower = active (kMESF (background-subtracted)) was 38.7 (inactive). Then `O=S1(=O)C=C(Sc2nc3ccccc3s2)c2ccccc21`, with 36 (inactive). As for `O=C(Nc1ccc(O)cc1)C1CCCN1S(=O)(=O)c1ccc(F)cc1` (centres undefined), the GFP fluorescence, lower = active (kMESF (background-subtracted)) is 45 (inactive). Consider `Cc1cc(=O)n2c3c(sc2n1)C(=O)N(Cc1ccccc1)C3=O`, for which the GFP fluorescence, lower = active (kMESF (background-subtracted)) is 42.5 (inactive).

On to `COc1ccc(OC)c(S(=O)(=O)ON2C(=O)c3ccccc3C2=O)c1`, for which the GFP fluorescence, lower = active (kMESF (background-subtracted)) was 25.6 (inactive).

On to `CC(=O)[C@]1(O)Cc2c(O)c3c(c(O)c2[C@@H](O[C@H]2C[C@H](N)[C@H](O)[C@H](C)O2)C1)C(=O)c1ccccc1C3=O`, for which the GFP fluorescence, lower = active (kMESF (background-subtracted)) is 42 (inactive). To `CC[C@]1(c2ccccc2OC)ON(c2ccccc2C(F)(F)F)C1=O` belongs 33.7 (inactive); to `Cc1cc(=O)oc2cc(Oc3ccc([N+](=O)[O-])cc3C(F)(F)F)ccc12`, 44.2 (inactive); to `COc1cc(/C=C2\C(=O)ON=C2c2ccc(Cl)cc2)ccc1O`, 40.8 (inactive). Regarding `COc1ccc(C=C2C(=O)c3ccccc3C2=O)cc1O`, the GFP fluorescence, lower = active (kMESF (background-subtracted)) was 38.1 (inactive).

Take `O=C1c2cccc3c([N+](=O)[O-])ccc(c23)C(=O)N1O`: the GFP fluorescence, lower = active (kMESF (background-subtracted)) was 49.9 (inactive). In the case of `Oc1ccc(COCc2ccccc2)c2cccnc12`, the GFP fluorescence, lower = active (kMESF (background-subtracted)) is 46.5 (inactive). As to `COc1ccc([N+](=O)[O-])c(S(=O)(=O)c2ccccc2)n1`, the GFP fluorescence, lower = active (kMESF (background-subtracted)) is 39.1 (inactive). On to `O=c1c2sc(-c3ccccc3)cc2nc2n1CCC2`, for which the GFP fluorescence, lower = active (kMESF (background-subtracted)) is 20.5 (inactive). To `COc1ccc(C2(C)ON(c3ccccc3C(F)(F)F)C2=O)cc1` (centres undefined) belongs 34.3 (inactive); to `O=C(/C=C/c1ccccc1)c1cc(Br)ccc(=O)c1O`, 4.04 (inactive). For the compound `c1ccc(-c2csc(Nc3cccnc3)n2)nc1`, the GFP fluorescence, lower = active (kMESF (background-subtracted)) was 36.5 (inactive). Then `Cc1ccc2[nH]c(C)c(/C=C/c3cc[n+](C)cc3)c2c1`, with 37.4 (inactive); and `Cc1ccc(C(=O)O/N=C(\N)Cc2cccs2)c(Cl)c1`, with 38.5 (inactive); and `COc1ccc(NC(=O)/C(C#N)=C/c2ncc([N+](=O)[O-])n2C)c(OC)c1`, with 41.5 (inactive). Turning to `O=C(/C=C/c1cc(Br)ccc1O)c1ccco1`, the GFP fluorescence, lower = active (kMESF (background-subtracted)) was 33.5 (inactive). On to `Clc1ccc(N=c2ssnc2Cl)cc1`, for which the GFP fluorescence, lower = active (kMESF (background-subtracted)) is 36.9 (inactive). Turning to `O=[N+]([O-])c1cnc(Sc2ccncn2)s1`, the GFP fluorescence, lower = active (kMESF (background-subtracted)) was 31.1 (inactive).

As to `O=C(Oc1oc(-c2ccco2)nc1C=Nc1ccccc1)c1ccco1`, the GFP fluorescence, lower = active (kMESF (background-subtracted)) is 38.5 (inactive). Take `O=C(Nc1ccc(N2CCOCC2)cc1)C1CCN(S(=O)(=O)c2ccc3c(c2)OCCO3)CC1`: the GFP fluorescence, lower = active (kMESF (background-subtracted)) is 34.9 (inactive).

With `COc1ccccc1C(=O)NNC(=S)NC(=O)c1cccs1`, the GFP fluorescence, lower = active (kMESF (background-subtracted)) was 43.5 (inactive). Regarding `COc1ccc(C(=O)NC(=S)NNC(=O)CCc2ccccc2)cc1`, the GFP fluorescence, lower = active (kMESF (background-subtracted)) is 46.5 (inactive).

Regarding `CCCc1cc(NCc2ccccn2)n2nc(C)c(-c3ccccc3)c2n1`, the GFP fluorescence, lower = active (kMESF (background-subtracted)) is 39.1 (inactive). Regarding `CCC1(c2ccccc2)ON(c2c(Br)cccc2Br)C1=O` (centres undefined), the GFP fluorescence, lower = active (kMESF (background-subtracted)) was 34.8 (inactive).

For the compound `O=C1C(Cl)=C(Nc2ccccc2O)C(=O)N1c1ccccc1`, the GFP fluorescence, lower = active (kMESF (background-subtracted)) is 43.6 (inactive). Then `Cc1ccc(N=Nc2ccc(O)c3ncccc23)cc1`, with 39.8 (inactive); and `C[C@@]12C(=O)OC(=O)[C@]1(C)C1CCC2O1`, with 25.9 (inactive); and `O=C(Oc1ccnc2cc(Cl)ccc12)N1CCCCCC1`, with 25.6 (inactive). With `O=C(O)c1ccn2c(C(=O)c3ccccc3)c(-c3ccccc3)cc2c1`, the GFP fluorescence, lower = active (kMESF (background-subtracted)) is 39.3 (inactive). For `Cc1c(Cc2ccccc2)c(NCCN(C)C)n2c(nc3ccccc32)c1C#N`, the GFP fluorescence, lower = active (kMESF (background-subtracted)) was 46.6 (inactive).

Values taken from PubChem BioAssay AID2740 (NMMLSC, 2010).
